Results taken from ChEMBL document CHEMBL4020815 (J Med Chem, 2017).
≈ marks a conversion by molar mass, not a printed value.

Key:
[1] = biological target: T1, Bifunctional purine biosynthesis protein ATIC (Homo sapiens, UniProt P31939); assay: Inhibition of human full length N-terminal His-tagged AICARFT expressed in Escherichia coli BL21 (DE3) using ZMP/10-formyltetrahydrofolate as substrate assessed as decrease in IMP levels after 1 hr by mass spectrometric method
[2] = tested on: Mus musculus; assay: In vivo inhibition of AICARFT in tumor of low folate diet fed nude mouse xenografted with human NCI-H460 cells assessed as increase in circulating AICAr levels at 0.3 to 30 mg/kg after 4 hrs relative to vehicle-treated control; assay type: functional
[3] = tested on: Mus musculus; assay: Unbound Cmax in CD-1 mouse at 5 mg/kg, po by LC-MS/MS method; assay type: ADME, organism-based; settings: in vivo
[4] = tested on: Mus musculus; assay: In vivo inhibition of AICARFT in tumor of low folate diet fed nude mouse xenografted with human NCI-H460 cells assessed as increase in intratumoral ZMP levels at 0.3 to 30 mg/kg after 4 hrs relative to vehicle-treated control; assay type: functional
[5] = Permeability across apical to basolateral side in MDCK cells at 20 uM; assay type: ADME, cell-based, Canis lupus familiaris; settings: dog
[6] = Plasma concentration in CD-1 mouse at 10 mg/kg, po after 1 hr by LC-MS/MS method; assay type: ADME, organism-based
[7] = tested on: Mus musculus; assay: Unbound clearance in CD-1 mouse at 5 mg/kg, iv by LC-MS/MS method; assay type: ADME, organism-based; settings: in vivo
[8] = tested on: Mus musculus; assay: Unbound volume of distribution at steady state in CD-1 mouse at 5 mg/kg, iv by LC-MS/MS method; assay type: ADME, organism-based; settings: in vivo
[9] = biological target: T1, Bifunctional purine biosynthesis protein ATIC; assay: Inhibition of AICARFT in human NCI-H460 cells assessed as increase in ZMP levels using low folate media after 16 hrs by LC-MS method; assay type: cell-based
[10] = tested on: Mus musculus; assay: Unbound AUC in CD-1 mouse at 5 mg/kg, po by LC-MS/MS method; assay type: ADME, organism-based; settings: in vivo
[11] = Fraction unbound in CD-1 mouse plasma; assay type: ADME, cell-free
[12] = Half life in CD-1 mouse at 5 mg/kg, po by LC-MS/MS method; assay type: ADME, organism-based; settings: in vivo
[13] = Oral bioavailability in CD-1 mouse at 5 mg/kg by LC-MS/MS method; assay type: ADME, organism-based; settings: in vivo
[14] = Equilibrium aqueous solubility of the compound at pH 6 after 20 hrs by HPLC method; assay type: physicochemical
[15] = Oral bioavailability in CD-1 mouse at 10 mg/kg by LC-MS/MS method; assay type: ADME, organism-based; settings: in vivo
[16] = Clearance in CD-1 mouse at 1 mg/kg, iv by LC-MS/MS method; assay type: ADME, organism-based; settings: in vivo
[17] = Dissociation constant, pKa of the compound; assay type: physicochemical
[18] = Equilibrium aqueous solubility of the compound at pH 7.5 after 20 hrs by HPLC method; assay type: physicochemical
[19] = Lipophilicity, log D of the compound at pH 7; assay type: physicochemical; settings: buffer
[20] = Equilibrium aqueous solubility of the compound at pH 2 after 20 hrs by HPLC method; assay type: physicochemical
[21] = AUC in CD-1 mouse at 10 mg/kg, po by LC-MS/MS method; assay type: ADME, organism-based; settings: in vivo
[22] = biological target: T1, Bifunctional purine biosynthesis protein ATIC; assay: Inhibition of human AICARFT
[23] = tested on: Mus musculus; assay: Toxicity in athymic nude mouse xenografted with human MDA-MB-231met2 cells assessed as body weight loss at 5 mg/kg, iv qd administered for 5 days; assay type: organism-based; settings: in vivo, 120 h
[24] = tested on: Mus musculus; assay: Toxicity in athymic nude mouse xenografted with human MDA-MB-231met2 cells assessed as mortality at 5 mg/kg, iv qd administered for 5 days; assay type: organism-based; settings: in vivo, 120 h
[25] = Antitumor activity against human MDA-MB-231met2 cells xenografted in athymic nude mouse assessed as tumor volume at 5 mg/kg, iv qd administered for 5 days measured after 9 days relative to control; assay type: functional

T1 sequence (P31939 whole entry): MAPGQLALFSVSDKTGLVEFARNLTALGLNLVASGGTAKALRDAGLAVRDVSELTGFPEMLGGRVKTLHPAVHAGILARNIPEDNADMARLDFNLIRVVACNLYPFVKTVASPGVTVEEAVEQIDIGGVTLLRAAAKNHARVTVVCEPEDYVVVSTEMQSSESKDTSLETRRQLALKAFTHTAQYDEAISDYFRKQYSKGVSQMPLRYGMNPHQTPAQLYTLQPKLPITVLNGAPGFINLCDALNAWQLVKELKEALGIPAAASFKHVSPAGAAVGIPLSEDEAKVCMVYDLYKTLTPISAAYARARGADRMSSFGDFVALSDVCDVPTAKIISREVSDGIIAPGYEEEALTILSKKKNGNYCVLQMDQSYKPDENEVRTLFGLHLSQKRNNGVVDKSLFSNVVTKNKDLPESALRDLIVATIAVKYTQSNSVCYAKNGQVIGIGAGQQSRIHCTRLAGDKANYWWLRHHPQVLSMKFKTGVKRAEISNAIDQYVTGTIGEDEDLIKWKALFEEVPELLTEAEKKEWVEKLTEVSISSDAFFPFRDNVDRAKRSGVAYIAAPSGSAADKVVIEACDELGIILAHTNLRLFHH

| SMILES | IC50 [1] [nM] | permeability [5] [%] | concentration at 1 h [6] [µM] | EC50 [9] [nM] | fraction unbound [11] | also measured |
| --- | --- | --- | --- | --- | --- | --- |
| N#Cc1ccc(S(=O)(=O)Nc2ccc3nc(N)[nH]c(=O)c3c2)cc1 | 18100 |  |  |  |  |  |
| O=c1[nH]ccc2cc(F)c(NS(=O)(=O)c3ccc(N4C[C@@H](O)[C@@H](F)C4)s3)cc12 (stereo in doubt) | 7.8 | 0.18 | 9.1 | 7.9 | 0.05 | fold change (FC) [2]: 80; fCmax [3]: 232 nM; fold change (FC) [4]: >100; CL free [7]: 44 mL/min/kg; Vduss [8]: 9 L/kg; fAUC [10]: 1.52 µM·h; half-life [12]: 2.8 h; bioavailability [13]: 33% |
| N#Cc1ccc(S(=O)(=O)Nc2ccc3cc[nH]c(=O)c3c2)cc1 | 608 | 0.55 |  | 567 |  | solubility thermodynamic at 20 h [14]: 40 µg/mL (≈ 123 µM); bioavailability [15]: 43%; clearance [16]: 4.47 mL/min/kg; pKa [17]: 6.93; solubility thermodynamic at 20 h [18]: 160 µg/mL (≈ 492 µM); logD [19]: 1.7; solubility thermodynamic at 20 h [20]: 30 µg/mL (≈ 92.2 µM); AUC [21]: 16100 ng·h/mL |
| N#Cc1ccc(S(=O)(=O)Nc2cc3c(=O)[nH]ccc3cc2F)cc1 | 723 | 0.35 |  | 1810 |  | solubility thermodynamic at 20 h [14]: 20 µg/mL (≈ 58.3 µM); bioavailability [15]: 79%; clearance [16]: 2.34 mL/min/kg; pKa [17]: 5.97; solubility thermodynamic at 20 h [18]: 230 µg/mL (≈ 670 µM); logD [19]: 0.6; solubility thermodynamic at 20 h [20]: 10 µg/mL (≈ 29.1 µM); AUC [21]: 55800 ng·h/mL |
| Nc1nc2ccc(NS(=O)(=O)c3ccc(C(=O)N[C@@H](CCC(=O)O)C(=O)O)cc3)cc2c(=O)[nH]1 | 1000 to 5000 |  |  |  |  | Ki [22]: 6 nM |
| O=c1[nH]ccc2cc(F)c(NS(=O)(=O)c3ccc(N4CCC[C@H](O)C4)s3)cc12 | 18 | 0.17 | 6.7 | 18 | 0.03 |  |
| O=c1[nH]ccc2cc(F)c(NS(=O)(=O)c3ccc(N4C[C@@H](O)C(F)(F)C4)s3)cc12 | 12 | 0.28 | 33 | 27 | 0.03 | fold change (FC) [2]: 80; fCmax [3]: 293 nM; fold change (FC) [4]: >100; CL free [7]: 50 mL/min/kg; Vduss [8]: 15 L/kg; fAUC [10]: 2.11 µM·h; half-life [12]: 3.2 h; bioavailability [13]: 55% |
| O=c1[nH]ccc2cc(F)c(NS(=O)(=O)c3ccc(N4CC[C@H](O)C4)s3)cc12 |  | 0.29 | 4.7 |  | 0.05 |  |
| O=c1[nH]ccc2cc(F)c(NS(=O)(=O)c3ccc(N4C[C@H](O)C(F)(F)C4)s3)cc12 | 13 | 0.34 | 19.3 | 31 | 0.02 |  |
| N#Cc1ccc(S(=O)(=O)Nc2cccc(C(N)=O)c2)cc1 | 90000 |  |  |  |  |  |
| O=c1ccc(-c2ccc(S(=O)(=O)Nc3cc4c(=O)[nH]ccc4cc3F)s2)c[nH]1 | < 5 | 0.09 | 1.7 | 62 | 0.05 |  |
| CC1(C)CC(c2ccc(S(=O)(=O)Nc3cc4c(=O)[nH]ccc4cc3F)s2)=CNC1=O | < 5 | 0.09 | 30.6 | 10 | < 0.02 | fCmax [3]: 187 nM; CL free [7]: 19 mL/min/kg; Vduss [8]: 9 L/kg; fAUC [10]: 2.159 µM·h; half-life [12]: 5.2 h; bioavailability [13]: 23% |
| O=c1[nH]ccc2cc(F)c(NS(=O)(=O)c3ccc(N4CCC(O)CC4)s3)cc12 | 13 | 0.25 | 4 | 21 | 0.05 |  |
| O=c1[nH]ccc2cc(F)c(NS(=O)(=O)c3ccc(N4C[C@@H](F)[C@@H](O)C4)s3)cc12 (stereo in doubt) | 20 | 0.17 | 12 | 17 | 0.05 |  |
| CCC1(C)CC(c2ccc(S(=O)(=O)Nc3cc4c(=O)[nH]ccc4cc3F)s2)=CNC1=O (stereo not given) | < 5 |  | 10.5 | 4 | < 0.03 |  |
| O=c1[nH]ccc2cc(F)c(NS(=O)(=O)c3ccc(N4CCC[C@@H](O)C4)s3)cc12 | 26 | 0.17 | 1.7 | 68 | 0.03 |  |
| O=C1NC(=O)c2cc(NS(=O)(=O)c3ccc(Cl)cc3)ccc21 | 34800 |  |  |  |  |  |
| N#Cc1ccc(S(=O)(=O)Nc2ccccc2)cc1 | > 100000 |  |  |  |  |  |
| CN(Cc1cnc2nc(N)nc(N)c2n1)c1ccc(C(=O)N[C@@H](CCC(=O)O)C(=O)O)cc1 [METHOTREXATE] |  |  |  |  |  | Activity [23]: Non-Toxic; Activity [24]: Non-Toxic; Activity [25]: 88% |
